The IC50 is the concentration at which inhibition is half-maximal.

The values below come from ChEMBL document CHEMBL5241095, “Developments of CRBN-based PROTACs as potential therapeutic agents” (Eur J Med Chem, 2021).

SMILES strings stand for the structures.

For one assay, the target named is Protein cereblon-NS3 (Hepacivirus hominis, UniProt A3EZJ3+Q96SW2). Put plainly: Protac activity at CRBN/NS3 in human Huh7.5 cells. Type of assay: cell-based.
Assay [1] deals with Protein cereblon/Peptidyl-prolyl cis-trans isomerase FKBP1A (Homo sapiens, UniProt P62942+Q96SW2). Put plainly: Protac activity at CRBN/FKBP12 in human Jurkat cells. Type of assay: cell-based.

As to `CCC[C@H](NC(=O)[C@@H]1[C@H]2CCC[C@H]2CN1C(=O)[C@@H](NC(=O)C(NC(=O)c1cnc(C(=O)NCCOCCOCCOc2cc3c4c(cccc4c2)C(=O)N(C2CCC(=O)NC2=O)C3=O)cn1)C1CCCCC1)C(C)(C)C)C(=O)C(=O)NC1CC1` (some centres not stated), inhibition on Protein cereblon-NS3 was half-maximal at 748 nM (IC50). Compound `COC1C(=O)[C@H](C)C[C@H](C)/C=C/C=C/C=C(\C)[C@@H](OC)C[C@@H]2CC[C@@H](C)[C@@](O)(O2)C(=O)C(=O)N2CCCC[C@H]2C(=O)O[C@H]([C@H](C)C[C@@H]2CC[C@@H](OCCOCc3cn(CCOCCOCCNc4cccc5c4C(=O)N(C4CCC(=O)NC4=O)C5=O)nn3)[C@H](OC)C2)CC(=O)[C@H](C)/C=C(\C)[C@H]1O` (some centres not stated) returned a DC50 in assay [1] of 0.3 nM.
